Test results published in PubChem BioAssay (NCI).
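All cell lines were grown in 96-well plates and treated with compound for 48 hours. At the TGI there is no net growth.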

Assays:
Assay in all cases: NCI-60 cell line screen, 48 h
[1] = test system: IGROV1 ovarian
[2] = test system: M14 melanoma
[3] = test system: SK-OV-3 ovarian
[4] = test system: UO-31 renal
[5] = test system: RXF 393 renal
[6] = test system: LOX IMVI melanoma
[7] = test system: OVCAR-4 ovarian
[8] = test system: MOLT-4 leukemia
[9] = test system: TK-10 renal
[10] = test system: NCI-H460 lung
[11] = test system: 786-0 renal
[12] = test system: U251 CNS
[13] = test system: A549 NSCLC
[14] = test system: BT-549 breast
[15] = test system: EKVX NSCLC
[16] = test system: UACC-62 melanoma
[17] = test system: T-47D breast
[18] = test system: SK-MEL-28 melanoma
[19] = test system: DU-145 prostate
[20] = test system: SN12C renal
[21] = test system: HCT-116 colon
[22] = test system: KM12 colon
[23] = test system: SK-MEL-2 melanoma
[24] = test system: UACC-257 melanoma
[25] = test system: NCI-H23 lung
[26] = test system: OVCAR-5 ovarian
[27] = test system: HCC-2998 colon
[28] = test system: SF-295 CNS
[29] = test system: CCRF-CEM leukemia
[30] = test system: SF-268 CNS
[31] = test system: OVCAR-3 ovarian
[32] = test system: MDA-N
[33] = test system: SNB-75 CNS
[34] = test system: HOP-92 NSCLC
[35] = test system: CAKI-1 renal
[36] = test system: HS 578T breast
[37] = test system: HT29 colon
[38] = test system: SF-539 CNS
[39] = test system: MALME-3M melanoma
[40] = test system: HCT-15 colon
[41] = test system: SW-620 colon
[42] = test system: PC-3 prostate
[43] = test system: MCF7 breast
[44] = test system: HL-60(TB) leukemia
[45] = test system: MDA-MB-435
[46] = test system: NCI-H226 lung
[47] = test system: OVCAR-8 ovarian
[48] = test system: A498 renal
[49] = test system: MDA-MB-231 breast
[50] = test system: NCI/ADR-RES ovarian
[51] = test system: ACHN renal
[52] = test system: COLO 205 colon
[53] = test system: K-562 leukemia

C[C@]12CC[C@@H]3c4cc(Br)c(O)c(Br)c4CC[C@H]3[C@@H]1CCC2=O
TGI [1]: > 100 µM | TGI [2]: > 100 µM | TGI [3]: 95.7 µM | TGI [4]: 24.2 µM | TGI [5]: 36.7 µM | TGI [6]: 71.9 µM | TGI [7]: 41.9 µM | TGI [8]: 80.6 µM | TGI [9]: 34.5 µM | TGI [10]: 48.9 µM | TGI [11]: 46.4 µM | TGI [12]: 36.5 µM | TGI [13]: 36.2 µM | TGI [14]: 57.7 µM | TGI [15]: 74.8 µM | TGI [16]: > 100 µM | TGI [17]: > 100 µM | TGI [18]: > 100 µM | TGI [19]: > 100 µM | TGI [20]: 65.1 µM | TGI [21]: > 100 µM | TGI [22]: > 100 µM | TGI [23]: 38.3 µM | TGI [24]: 56.1 µM | TGI [25]: 26.7 µM | TGI [26]: 65.2 µM | TGI [27]: 26.9 µM | TGI [28]: 38.1 µM | TGI [29]: > 100 µM | TGI [30]: 54.3 µM | TGI [31]: 31.4 µM | TGI [32]: > 100 µM | TGI [33]: 33.3 µM | TGI [34]: > 100 µM | TGI [35]: 38.9 µM | TGI [36]: 52.2 µM | TGI [37]: > 100 µM | TGI [38]: 39.3 µM | TGI [39]: > 100 µM | TGI [40]: 26.1 µM | TGI [41]: > 100 µM | TGI [42]: > 100 µM | TGI [43]: 43.9 µM | TGI [44]: > 100 µM | TGI [45]: > 100 µM | TGI [46]: 26 µM | TGI [47]: 39.5 µM | TGI [48]: > 100 µM | TGI [49]: > 100 µM | TGI [50]: 36.9 µM | TGI [51]: 26.9 µM | TGI [52]: > 100 µM | TGI [53]: > 100 µM
